Consider one compound from patent US6642215B2 (Leo Pharma A/S, priority 2001, dated 2003).

Structures are written as SMILES. Where two headings read alike, the source gives them in different places.

For one experiment, the system named is IκBα, IκBβ. The experiment can be described thus: Western blotting of LPS-induced IκB degradation in THP-1 cells. Conditions: 1 μM compound 24 h before 1 μg/ml LPS for 10 to 30 min, versus DMSO-treated cells. The format is cell-based, human. As to the method:
Western blotting: THP-1 cells (5×10^6 cells) were starved overnight at 37° C., 5% CO2 in starvation medium (RPMI 1640 with 2% FBS) including 1 μM of compound A or 0.01% DMSO. The cells were hereafter stimulated with 1 μg/ml LPS (E. coli serotype 055: B5, Sigma-Aldrich Danmark AS, Vallensbaek Strand, Denmark) at the indicated times. Whole cell extracts were prepared in lysis buffer (50 mM HEPES, pH 7.5, 150 mM NaCl, 10 mM EDTA, 10 mM Na4P2O7, 100 mM NaF, 2 mM Na3VO4, 1% Triton-X-100, 0.5 mM Pefabloc (Boehringer Mannheim GmbH, Mannheim, Germany), […]).
A 3×SDS-sample buffer (125 mM Tris/HCl pH 6.8, 4% SDS, 20% glycerol, 0.025% bromphenol blue, 10% DTT) was added to 200 μl of clarified cell lysate, and the sample (20 μl) was boiled and electrophoresed on a 12% SDS-polyacrylamide gel. The primary antibodies (anti-IκBα, anti-IκBβ, anti-cdk-7; all from Santa Cruz Biotechnology Inc., Heidelberg, Germany) were diluted 1:1000. The secondary antibody (anti-rabbit-HRP from DAKO A/S, Glostrup, Denmark) was used in a 1:2000 dilution. […] The relative amounts of the transferred proteins were quantified by using the ImageQuant Software (Molecular Dynamics, Sunnyvale, Calif., USA) by scanning the autoradiographic films and normalized to the related cdk-7 amounts.
Background: A western blot detects proteins with antibodies after separation by electrophoresis.

A further experiment relates to Colo-320 cells. The experiment can be described thus: DNA synthesis (tritiated thymidine incorporation) in Colo-320 cells. The format is cell-based. The settings on record: Homo sapiens, 144 h incubation, mean ± SD of two to four experiments. As for the experimental part: (§1) DNA synthesis: NYH SCLC, HT-1080, Colo-320, PC-3 and H460 cells (7.5×10^3 cells/ml) were seeded in tissue culture vessels and the test compound were added 2 h after plating. Following an incubation for 144 h tritiated thymidine (5 CI/mmol, Amersham Pharmacia Biotech) was added to the culture at the concentration of 1 μCi/ml, and the cells were incubated for additional 4 h. The incorporated thymidine was measured with a β-counter. Each compound concentration was tested in triplicate.
In general terms: Dividing cells build labelled thymidine or BrdU into new DNA.

Another experiment concerns PC-3 cells. The experiment can be described thus: DNA synthesis (tritiated thymidine incorporation) in PC-3 cells. The settings on record: Homo sapiens, 144 h incubation, mean ± SD of two to four experiments. The format is cell-based. As to the method: as §1
The test system of a further experiment is HT 1080 Xenografts. Kind of experiment: HT 1080 xenografts in nude mice, tumour growth. The settings on record: HT-1080 xenograft, 50 mg/kg, oral gavage. The format is in vivo, NMRI nu/nu mice. As for the experimental part: All of the animal experiments were conducted according to the guidelines and ethical standards of the Danish Committee for Animal Experiments. Female NMRI nu/nu mice 6 weeks of age were purchased from M&B (Ry, Denmark). The mice were allowed an acclimatisation period of 1-3 weeks before start of the experiments. The nude mice were housed in Scantainers under semi-sterile conditions and all handling of mice was performed in a laminar flow bench.
HT 1080 Xenografts. NMRI nu/nu mice were injected with 2×10^6 cells in 0.2 ml media s.c. in each flank and tumour size was measured as described for the NYH model. Compound A was given for fourteen days by oral gavage from day 4 when the tumour size was 22-24 mm^2. Each treatment group consisted of 10 mice.
Statistical Methods In the animal models, tumour sizes were expressed by the mean of the trends in each treatment group. The trend is the linear increment or tumour size, where tumour size is the square root of the (mean) area of the tumour(s). Comparison with controls was expressed as T/C % and calculated as follows:
A=(overall mean tumour size at baseline+mean trend of treatment*intended days of treatment) […]
Overall mean tumour size at baseline=pooling all treatments this is the mean of all baseline values. For each mouse the baseline value is calculated as the square root of the (mean) area of the tumour(s). […]

For a further experiment, the system named is NYH SCLC cells. The experiment can be described thus: DNA synthesis (tritiated thymidine incorporation) in NYH SCLC cells. The format is cell-based. As to the method: as §1

On to `N#CNC(=Nc1ccncc1)NCCCCCCOc1ccc(Cl)cc1` [compound A, N-(6-(4-chlorophenoxy)hexyl)-N′-cyano-N″-(4-pyridyl)guanidine], for which the “LPS-induced IκB degradation” value with IκBα, IκBβ is reported as “much slower rate”. Further, the IC50 in the experiment on Colo-320 cells was determined as 5.4 ± 0.1 nM; in the experiment on PC-3 cells, 5.6 ± 0.3 nM; in the experiment on NYH SCLC cells (NYH SCLC cells, 144 h incubation, mean ± SD of two to four experiments, read-out: DNA synthesis (IC50 nM)) it was 0.64 ± 0.06 nM; in the experiment with NYH SCLC cells (incorporation of tritiated thymidine in NYH SCLC cells, read-out: NYH proliferation in vitro (IC50 nM)), 0.64 ± 0.06 nM. Further, the “In vivo xenografts in nude mice T/C (%)” value in the experiment with HT 1080 Xenografts is given as −77%.
